Measured values published in patent publication US20210246019A1, “PEPTIDE/LIPID-ASSOCIATED NUCLEIC ACIDS (PLANA) FOR NUCLEIC ACID DELIVERY” (priority 2020, published 2021).

System: hCoV-229E
Assay: microbe, parasite or virus in culture
Details: Human coronavirus 229E, MRC5, read-out: cell viability

Question: For `CCC(CC)COC(=O)[C@H](C)N[P@](=O)(OC[C@H]1O[C@@](C#N)(c2ccc3c(N)ncnn23)[C@H](O)[C@@H]1O)Oc1ccccc1` [remdesivir], which viability at 5 µM is on record?
Answer: 92%
